# According to patent US9365499B2, “9-aminomethyl substituted tetracycline compounds” (KBP Biosciences Co., Ltd., priority 2011, dated 2016):
# Like-named read-outs stand apart in the source and are kept apart here.
# Tests used:
# Acinetobacter baumannii = assay: antibacterial activity in vitro, agar dilution method; format: cell-based
# Excerpt: (§1) The antibacterial spectrum and in vitro antibacterial activity of the compound of the present invention
# (§2) Experimental method: the agar dilution method, with reference to Clinical And Laboratory Standards Institute. Methods for Dilution Antimicrobial Susceptibility Tests for Bacteria That Grow Aerobically; Approved Standard-Seventh Edition. CLSI Document M7-A7. Vol 26, no. 2, Wayne, Pa.: Clinical and Laboratory Standards Institute, 2006.
# (§3) Wherein MIC represents the minimum inhibitory concentration, MIC90 represents the 90% inhibitory concentration.
# [1] = test system: Methicillin-resistant Staphylococcus aureus (MRSA); assay: as above; format: cell-based
# Excerpt: as §1, §2, §3
# Klebsiella pneumoniae = assay: as above; format: cell-based
# Excerpt: as §1, §2, §3
# [2] = test system: Methicillin-resistant Staphycoccus epidermidis (MRSE); assay: as above; format: cell-based; conditions: Staphylococcus epidermidis
# Excerpt: as §1, §2, §3
# Streptococcus pyogenes = assay: as above; format: cell-based; conditions: Table 2
# Excerpt: as §1, §2, §3
# Escherichia coli = assay: as above; format: cell-based
# Excerpt: as §1, §2, §3
# Streptococus agalactiae = assay: as above; format: cell-based; conditions: Table 4
# Excerpt: as §1, §2, §3
# [3] = test system: Acinetobacter calcoaceticus; assay: as above; format: cell-based; conditions: Table 4
# Excerpt: as §1, §2, §3
# Enterococcus faecalis = assay: as above; format: cell-based; conditions: Table 4
# Excerpt: as §1, §2, §3
# Klebsiella oxytoca = assay: as above; format: cell-based; conditions: Table 3
# Excerpt: as §1, §2, §3
# in vivo = assay: in vivo; parameters: species or system male SD rats; conditions: male, SD, rat, 5 mg/kg
# Method: Test animals: male SD rats, weighing 180-280 g, purchased from Beijing Vital River Laboratory Animal Technology Co., Ltd.; animal Certificate of Conformity: SCXK (Beijing) 2006-0009. Six rats were tested for each compound. the compounds of the present invention, prepared in accordance with the methods of above Examples, dissolved in physiological saline. tigecycline, dissolved in physiological saline. Administration of the compounds of the present invention: intravenous bolus injection (iv), dose: 5 mg/kg, administrating volume: 5 mL/kg; gavage (po), dose: 5 mg/kg, administrating volume: 5 mL/kg. Administration of tigecycline: gavage (po), dose: 10 mg/kg, administrating volume: 5 mL/kg. Prior to administration help but water fasting for 16 hours, 4 hours after administration to food. Compound 9: iv blood sampling time point: denoted by 0 min before administration, 5 min, 15 min, 30 min, 1 […] after administration; po blood sampling time point: denoted by 0 min before administration, 5 min, 15 min, 30 min, 1 […] after administration; Compound 20: iv blood sampling time point: 5 min, 15 min, 30 min, 1 […] after administration; po blood sampling time point: 10 min, 30 min, 1 […] after administration; Compound 23: iv blood sampling time point: denoted by 0 min before administration, 5 min, 15 min, 30 min, 1 […] after administration; po blood sampling time point: denoted by 0 min before administration, 5 min, 15 min, 30 min, 1 […] after administration; Tigecycline: iv blood sampling time point: 5 min, 15 min, 30 min, 1 h, 2 h, 4 h, 6 h, 8 h after administration; po blood sampling time point: 10 min, 30 min, 1 […] after administration. Each time point is taken around 100 μl whole blood and placed in a heparinized tube, centrifugated at 8000 rpm/min at 4° C. for 6 minutes in a low-temperature high-speed centrifuge to separate plasma, the resulting plasma was frozen at -80° C. refrigerator. Plasma samples analysis: 20 μl of plasma was taken and added 200 μl of internal standard solution, subjected to vortex for 3 minutes, then to centrifugation at 12,000 rpm/min for 5 minutes. 100 μl of supernatant was taken and analyzed using LC-MS/MS. Formula Absolute Bioavailability F%=[AUC](po)×Dose(iv)/[AUC](iv)×Dose(po)
# [4] = Table 4, agar dilution, read-out: antibacterial activity MIC, Acinetobacter baumannii
# [5] = Table 3, agar dilution, read-out: antibacterial activity MIC, Acinetobacter baumannii
MIC (Streptococus agalactiae) [µg/mL],MIC (Acinetobacter baumannii; [4]) [µg/mL],"MIC ([1]; Table 4, agar dilution) [µg/mL]",MIC (Klebsiella pneumoniae; Table 4) [µg/mL],MIC [3] [µg/mL],MIC (Escherichia coli; Table 4) [µg/mL],MIC (Enterococcus faecalis) [µg/mL],MIC (Acinetobacter baumannii; [5]) [µg/mL],"MIC ([1]; Table 3, agar dilution) [µg/mL]",MIC (Klebsiella pneumoniae; Table 3) [µg/mL],MIC ([2]; Table 3) [µg/mL],MIC (Escherichia coli; Table 3) [µg/mL],MIC (Klebsiella oxytoca) [µg/mL],SMILES,also measured
,,,,,,,1,0.5,2,1,0.5,1,"CN(C)c1cc(CN2CCC3(CC2)CC3)c(O)c2c1C[C@H]1C[C@H]3[C@H](N(C)C)C(O)=C(C(N)=O)C(=O)[C@@]3(O)C(O)=C1C2=O [Compound 20, (4S,4aS,5aR,12aS)-9-(6-azaspiro[2.5]octan-6-ylmethyl)-4,7-bis(dimethylamino)-3,10,12,12a-tetrahydroxy-1,1′-dioxo-1,4,4a,5,5a,6,11,12a-octahydrotetracene-2-carboxamide]",AUC(0-t) (in vivo; iv): 11600 ng·h/mL; Vd (in vivo; iv): 2.22 L/kg; clearance (in vivo; iv): 7.33 mL/min/kg; half-life (in vivo; iv): 4.98 h; AUC(0-t) (in vivo; po): 605 ng·h/mL; Cmax (in vivo; po): 116 ng/mL; Tmax (in vivo; po): 2 h; bioavailability (in vivo; po): 5.22%
0.125,0.5,0.5,4,0.125,2,0.125,,,,,,,"CN(C)c1cc(CN2CC3C(C2)C3(C)C)c(O)c2c1C[C@H]1C[C@H]3[C@H](N(C)C)C(O)=C(C(N)=O)C(=O)[C@@]3(O)C(O)=C1C2=O (stereo partly drawn) [Compound 27, (4S,4aS,5aR,12aS)-9-((6-dimethyl-3-azabicyclo[3.1.0]hexan-3-yl)methyl)-4,7-bis(dimethylamino)-3,10,12,12a-tetrahydroxy-1,1′-dioxo-1,4,4a,5,5a,6,11,12a-octahydrotetracene-2-carboxamide]",
,,,,,,,0.25,0.5,1,0.5,1,0.25,"CN(C)c1cc(CN2CC(F)C2)c(O)c2c1C[C@H]1C[C@H]3[C@H](N(C)C)C(O)=C(C(N)=O)C(=O)[C@@]3(O)C(O)=C1C2=O [Compound 19, (4S,4aS,5aR,12aS)-4,7-bis(dimethylamino)-9-((3-fluoroazetidin-1-yl)methyl)-3,10,12,12a-tetrahydroxy-1,11-dioxo-1,4,4a,5,5a,6,11,12a-octahydrotetracene-2-carboxamide]",
,,,,,,,4,0.5,1,0.5,0.5,1,"CN(C)c1cc(CN2CC3(CCC3)C2)c(O)c2c1C[C@H]1C[C@H]3[C@H](N(C)C)C(O)=C(C(N)=O)C(=O)[C@@]3(O)C(O)=C1C2=O [Compound 9, (4S,4aS,5aR,12aS)-9-(2-azaspiro[3.3]heptan-2-ylmethyl)-4,7-bis(dimethylamino)-3,10,12,12a-tetrahydroxy-1,1′-dioxo-1,4,4a,5,5a,6,11,12a-octahydrotetracene-2-carboxamide]",AUC(0-t) (in vivo; iv): 6070 ng·h/mL; Vd (in vivo; iv): 4.65 L/kg; clearance (in vivo; iv): 13.3 mL/min/kg; half-life (in vivo; iv): 5.85 h; AUC(0-t) (in vivo; po): 216 ng·h/mL; Cmax (in vivo; po): 35.6 ng/mL; Tmax (in vivo; po): 1 h; bioavailability (in vivo; po): 3.56%
,,,,,,,1,0.5,2,1,1,1,"CN(C)c1cc(CN2CC(C)(C)C2)c(O)c2c1C[C@H]1C[C@H]3[C@H](N(C)C)C(O)=C(C(N)=O)C(=O)[C@@]3(O)C(O)=C1C2=O [Compound 1, (4S,4aS,5aR,12aS)-9-((3,3-dimethylazetidin-1-yl)methyl)-4,7-bis(dimethylamino)-3,10,12,12a-tetrahydroxy-1,1′-dioxo-1,4,4a,5,5a,6,11,12a-octahydrotetracene-2-carboxamide]",
0.125,1,0.5,2,0.125,1,0.06,,,,,,,"CN(C)c1cc(CN2CC3CCCC3C2)c(O)c2c1C[C@H]1C[C@H]3[C@H](N(C)C)C(O)=C(C(N)=O)C(=O)[C@@]3(O)C(O)=C1C2=O (stereo partly drawn) [Compound 28, (4S,4aS,5aR,12aS)-4,7-bis(dimethylamino)-9-((hexahydrocyclopenta[c]pyrrol-2(1H)-yl)methyl)-3,10,12,12a-tetrahydroxy-1,1′-dioxo-1,4,4a,5,5a,6,11,12a-octahydrotetracene-2-carboxamide]",
,,,,,,,1,0.5,1,0.5,1,1,"CN(C)c1cc(CN2CC3(C2)CC(F)(F)C3)c(O)c2c1C[C@H]1C[C@H]3[C@H](N(C)C)C(O)=C(C(N)=O)C(=O)[C@@]3(O)C(O)=C1C2=O [Compound 16, (4S,4aS,5aR,12aS)-9-((6,6-difluoro-2-azaspiro[3.3]heptan-2-yl)methyl)-4,7-bis(dimethylamino)-3,10,12,12a-tetrahydroxy-1,1′-dioxo-1,4,4a,5,5a,6,11,12a-octahydrotetracene-2-carboxamide]",

# Continued, molecule first:
SMILES,MIC (Streptococus agalactiae) [µg/mL],MIC (Acinetobacter baumannii; [4]) [µg/mL],"MIC ([1]; Table 4, agar dilution) [µg/mL]",MIC (Klebsiella pneumoniae; Table 4) [µg/mL],MIC [3] [µg/mL],MIC (Escherichia coli; Table 4) [µg/mL],MIC (Enterococcus faecalis) [µg/mL],MIC (Acinetobacter baumannii; [5]) [µg/mL],"MIC ([1]; Table 3, agar dilution) [µg/mL]",MIC (Klebsiella pneumoniae; Table 3) [µg/mL],MIC ([2]; Table 3) [µg/mL],MIC (Escherichia coli; Table 3) [µg/mL],MIC (Klebsiella oxytoca) [µg/mL],also measured
"CN(C)c1cc(CNC2CC3(CC3)C2)c(O)c2c1C[C@H]1C[C@H]3[C@H](N(C)C)C(O)=C(C(N)=O)C(=O)[C@@]3(O)C(O)=C1C2=O [Compound 3, (4S,4aS,5aR,12aS)-9-((spiro[2.3]hexan-5-ylamino)methyl)-4,7-bis(dimethylamino)-3,10,12,12a-tetrahydroxy-1,1′-dioxo-1,4,4a,5,5a,6,11,12a-octahydrotetracene-2-carboxamide]",,,,,,,,,,,,,,"MIC (Acinetobacter baumannii; Table 2, agar dilution, read-out: antibacterial activity MIC, Acinetbacter baumannii): 4 µg/mL; MIC ([1]; Table 2, agar dilution): 0.5 µg/mL; MIC (Klebsiella pneumoniae; Table 2): 2 µg/mL; MIC ([2]; Table 2): 0.5 µg/mL; MIC (Streptococcus pyogenes): 0.06 µg/mL; MIC (Escherichia coli; Table 2): 1 µg/mL"
"CN(C)c1cc(CN2CCC3CCCCC3C2)c(O)c2c1CC1CC3[C@H](N(C)C)C(O)=C(C(N)=O)C(=O)[C@@]3(O)C(O)=C1C2=O (stereo partly drawn) [Compound c, reference compound]",0.25,4,1,16,0.5,4,0.5,,,,,,,
"CN(C)c1cc(CN2CCC3(CCCC3)CC2)c(O)c2c1CC1CC3[C@H](N(C)C)C(O)=C(C(N)=O)C(=O)[C@@]3(O)C(O)=C1C2=O (stereo partly drawn) [Compound d, reference compound]",,,,,,,,4,1,8,2,2,8,
"CN(C)c1cc(CN2CC3CC(C3)C2)c(O)c2c1C[C@H]1C[C@H]3[C@H](N(C)C)C(O)=C(C(N)=O)C(=O)[C@@]3(O)C(O)=C1C2=O [Compound 24, (4S,4aS,5aR,12aS)-9-(3-azabicyclo[3.1.1]heptan-3-ylmethyl)-4,7-bis(dimethylamino)-3,10,12,12a-tetrahydroxy-1,1′-dioxo-1,4,4a,5,5a,6,11,12a-octahydrotetracene-2-carboxamide]",0.125,1,0.5,2,0.25,1,0.25,,,,,,,
"CN(C)c1cc(CN2CC3CCCCC3C2)c(O)c2c1C[C@H]1C[C@H]3[C@H](N(C)C)C(O)=C(C(N)=O)C(=O)[C@@]3(O)C(O)=C1C2=O (stereo partly drawn) [Compound 29, (4S,4aS,5aR,12aS)-9-((1H-isoindol-2(3H,3aH,4H,5H,6H,7H,7aH)-yl)methyl)-4,7-bis(dimethylamino)-3,10,12,12a-tetrahydroxy-1,11-dioxo-1,4,4a,5,5a,6,11,12a-octahydrotetracene-2-carboxamide]",0.25,2,1,4,0.25,1,0.125,,,,,,,
